Experimental findings from ChEMBL document CHEMBL5696442, “Discovery of type II inhibitors of TGFβ-activated kinase 1 (TAK1) and mitogen-activated protein kinase kinase kinase kinase 2 (MAP4K2)” (J Med Chem, 2015) are described below.

Test [1] deals with T1, Serine/threonine-protein kinase 3 (Homo sapiens) (UniProt Q13188).
T1 sequence (whole entry): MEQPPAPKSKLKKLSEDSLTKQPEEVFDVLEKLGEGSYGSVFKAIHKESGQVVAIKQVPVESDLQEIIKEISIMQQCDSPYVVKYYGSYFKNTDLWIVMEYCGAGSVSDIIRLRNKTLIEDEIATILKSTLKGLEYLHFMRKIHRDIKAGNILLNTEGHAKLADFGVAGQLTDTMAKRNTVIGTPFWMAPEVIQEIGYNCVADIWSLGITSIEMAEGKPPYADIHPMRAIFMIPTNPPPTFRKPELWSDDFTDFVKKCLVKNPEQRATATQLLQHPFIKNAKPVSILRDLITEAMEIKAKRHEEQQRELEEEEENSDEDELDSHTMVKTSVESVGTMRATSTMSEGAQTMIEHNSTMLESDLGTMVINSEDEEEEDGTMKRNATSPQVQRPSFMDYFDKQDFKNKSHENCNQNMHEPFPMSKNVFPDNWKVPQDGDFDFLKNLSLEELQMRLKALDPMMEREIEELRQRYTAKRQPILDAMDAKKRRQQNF
The test can be described thus: Inhibition of MST2 Lys2 labeling site harbouring DIKAGNILLNTEGHAK in human Huh-7 cell lysate at 1 uM by KiNativ Profiling analysis relative to control. The class given is subcellular.

Test [2] is described as follows: Inhibition of p70S6K ATP Loop labeling site in human Huh-7 cells at 1 uM by KiNativ Profiling analysis relative to control. The settings on record: condition cancer.
In test [3] the target is Misshapen-like kinase 1 (Homo sapiens) (UniProt Q8N4C8). Briefly: Inhibition of ZC3/MINK Lys2 labeling site in human Huh-7 cells at 1 uM by KiNativ Profiling analysis relative to control. It counts as cell-based.
Sequence of Misshapen-like kinase 1 (Homo sapiens) (Q8N4C8 whole entry, looked up): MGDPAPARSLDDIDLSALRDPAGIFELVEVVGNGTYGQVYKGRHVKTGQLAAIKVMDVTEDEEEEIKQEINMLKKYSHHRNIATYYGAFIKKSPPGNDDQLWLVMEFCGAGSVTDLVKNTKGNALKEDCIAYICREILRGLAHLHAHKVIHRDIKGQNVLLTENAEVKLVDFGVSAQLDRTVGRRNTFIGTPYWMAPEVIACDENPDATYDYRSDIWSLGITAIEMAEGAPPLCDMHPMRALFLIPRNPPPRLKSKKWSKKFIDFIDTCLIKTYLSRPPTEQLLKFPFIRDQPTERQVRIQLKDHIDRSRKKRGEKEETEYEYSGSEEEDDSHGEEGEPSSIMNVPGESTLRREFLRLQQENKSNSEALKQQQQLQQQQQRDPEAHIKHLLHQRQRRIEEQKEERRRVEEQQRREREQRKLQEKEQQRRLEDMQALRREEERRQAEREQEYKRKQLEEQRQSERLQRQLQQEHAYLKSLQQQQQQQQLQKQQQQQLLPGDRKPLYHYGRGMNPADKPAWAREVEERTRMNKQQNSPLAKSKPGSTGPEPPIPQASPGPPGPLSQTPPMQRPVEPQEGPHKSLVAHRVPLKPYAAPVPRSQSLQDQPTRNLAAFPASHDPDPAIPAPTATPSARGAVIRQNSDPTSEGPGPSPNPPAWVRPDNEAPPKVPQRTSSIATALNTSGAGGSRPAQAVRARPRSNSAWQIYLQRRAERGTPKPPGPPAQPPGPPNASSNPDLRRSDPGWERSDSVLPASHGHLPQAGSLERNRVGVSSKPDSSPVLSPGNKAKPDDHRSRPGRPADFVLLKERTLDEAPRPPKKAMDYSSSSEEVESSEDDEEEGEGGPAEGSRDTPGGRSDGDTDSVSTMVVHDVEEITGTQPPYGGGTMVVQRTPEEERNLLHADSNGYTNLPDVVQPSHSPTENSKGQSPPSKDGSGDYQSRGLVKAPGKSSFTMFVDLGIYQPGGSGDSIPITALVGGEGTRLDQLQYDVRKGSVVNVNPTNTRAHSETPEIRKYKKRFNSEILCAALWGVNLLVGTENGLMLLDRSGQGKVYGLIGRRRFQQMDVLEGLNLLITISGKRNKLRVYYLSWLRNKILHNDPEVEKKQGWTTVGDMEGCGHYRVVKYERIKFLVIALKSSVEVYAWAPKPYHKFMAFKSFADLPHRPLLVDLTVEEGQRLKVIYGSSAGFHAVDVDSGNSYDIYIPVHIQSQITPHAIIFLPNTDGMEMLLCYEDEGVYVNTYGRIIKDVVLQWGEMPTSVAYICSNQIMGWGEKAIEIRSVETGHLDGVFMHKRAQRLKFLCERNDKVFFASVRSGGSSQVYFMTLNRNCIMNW
Test [4] concerns Epidermal growth factor receptor (Homo sapiens), P00533 [UNDEFINED MUTATION]. The test can be described thus: Inhibition of EGFR L747/T751del mutant (unknown origin) at 1 uM by Ambit Kinomescan binding assay relative to control.
Sequence of Epidermal growth factor receptor (Homo sapiens), P00533 [UNDEFINED MUTATION] (P00533 whole entry, looked up, stated change not applied, the tested form may be a part): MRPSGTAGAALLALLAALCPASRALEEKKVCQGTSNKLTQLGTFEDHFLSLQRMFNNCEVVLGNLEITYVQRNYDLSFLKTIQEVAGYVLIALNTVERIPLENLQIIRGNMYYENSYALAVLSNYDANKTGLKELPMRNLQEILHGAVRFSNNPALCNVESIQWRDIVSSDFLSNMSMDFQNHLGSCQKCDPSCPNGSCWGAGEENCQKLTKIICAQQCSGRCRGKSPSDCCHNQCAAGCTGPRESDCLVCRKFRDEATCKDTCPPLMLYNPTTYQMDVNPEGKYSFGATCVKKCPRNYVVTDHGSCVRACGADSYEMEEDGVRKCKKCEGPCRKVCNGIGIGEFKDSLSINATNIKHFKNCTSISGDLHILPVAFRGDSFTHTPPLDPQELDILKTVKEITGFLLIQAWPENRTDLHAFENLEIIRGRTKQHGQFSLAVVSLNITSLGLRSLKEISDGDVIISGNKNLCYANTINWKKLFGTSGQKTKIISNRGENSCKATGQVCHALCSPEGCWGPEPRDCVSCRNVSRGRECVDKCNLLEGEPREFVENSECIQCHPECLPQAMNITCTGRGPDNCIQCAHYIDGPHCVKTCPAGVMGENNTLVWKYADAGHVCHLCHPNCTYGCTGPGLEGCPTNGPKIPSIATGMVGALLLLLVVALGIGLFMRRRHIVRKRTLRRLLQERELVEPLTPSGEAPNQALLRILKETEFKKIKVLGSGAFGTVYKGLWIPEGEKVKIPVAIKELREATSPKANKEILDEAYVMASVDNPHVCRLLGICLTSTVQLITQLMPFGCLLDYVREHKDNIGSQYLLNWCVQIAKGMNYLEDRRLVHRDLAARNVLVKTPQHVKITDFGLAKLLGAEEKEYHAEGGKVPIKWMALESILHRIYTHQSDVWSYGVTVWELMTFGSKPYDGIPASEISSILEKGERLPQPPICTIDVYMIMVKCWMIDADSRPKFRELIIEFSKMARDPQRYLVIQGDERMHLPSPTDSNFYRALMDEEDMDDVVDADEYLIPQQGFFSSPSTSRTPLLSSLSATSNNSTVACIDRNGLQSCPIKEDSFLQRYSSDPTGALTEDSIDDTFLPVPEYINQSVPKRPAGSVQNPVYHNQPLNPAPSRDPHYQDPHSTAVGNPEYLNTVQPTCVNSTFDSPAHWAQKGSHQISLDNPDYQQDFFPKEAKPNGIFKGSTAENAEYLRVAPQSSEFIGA
In test [5] the target is Ribosomal protein S6 kinase alpha-4 (Homo sapiens) (UniProt O75676). The test can be described thus: Inhibition of N-terminal RPS6KA4 kinase domain 1 (unknown origin) at 1 uM by Ambit Kinomescan binding assay relative to control.
Test [6] concerns the target STE20-like serine/threonine-protein kinase (Homo sapiens) (UniProt Q9H2G2). The test can be described thus: Inhibition of SLK Lys1 labeling site in human A-375 cells at 0.5 uM by KiNativ Profiling analysis relative to control. The class given is cell-based.
Another test has as its target Ephrin type-A receptor 2 (Homo sapiens, UniProt P29317). Briefly: Inhibition of EphA2 ACT labeling site in human A-375 cells at 0.05 uM by KiNativ Profiling analysis relative to control. The class given is cell-based.
For test [7], the target named is T2, Mitogen-activated protein kinase kinase kinase 15 (Homo sapiens) (UniProt Q6ZN16).
T2 sequence (whole entry): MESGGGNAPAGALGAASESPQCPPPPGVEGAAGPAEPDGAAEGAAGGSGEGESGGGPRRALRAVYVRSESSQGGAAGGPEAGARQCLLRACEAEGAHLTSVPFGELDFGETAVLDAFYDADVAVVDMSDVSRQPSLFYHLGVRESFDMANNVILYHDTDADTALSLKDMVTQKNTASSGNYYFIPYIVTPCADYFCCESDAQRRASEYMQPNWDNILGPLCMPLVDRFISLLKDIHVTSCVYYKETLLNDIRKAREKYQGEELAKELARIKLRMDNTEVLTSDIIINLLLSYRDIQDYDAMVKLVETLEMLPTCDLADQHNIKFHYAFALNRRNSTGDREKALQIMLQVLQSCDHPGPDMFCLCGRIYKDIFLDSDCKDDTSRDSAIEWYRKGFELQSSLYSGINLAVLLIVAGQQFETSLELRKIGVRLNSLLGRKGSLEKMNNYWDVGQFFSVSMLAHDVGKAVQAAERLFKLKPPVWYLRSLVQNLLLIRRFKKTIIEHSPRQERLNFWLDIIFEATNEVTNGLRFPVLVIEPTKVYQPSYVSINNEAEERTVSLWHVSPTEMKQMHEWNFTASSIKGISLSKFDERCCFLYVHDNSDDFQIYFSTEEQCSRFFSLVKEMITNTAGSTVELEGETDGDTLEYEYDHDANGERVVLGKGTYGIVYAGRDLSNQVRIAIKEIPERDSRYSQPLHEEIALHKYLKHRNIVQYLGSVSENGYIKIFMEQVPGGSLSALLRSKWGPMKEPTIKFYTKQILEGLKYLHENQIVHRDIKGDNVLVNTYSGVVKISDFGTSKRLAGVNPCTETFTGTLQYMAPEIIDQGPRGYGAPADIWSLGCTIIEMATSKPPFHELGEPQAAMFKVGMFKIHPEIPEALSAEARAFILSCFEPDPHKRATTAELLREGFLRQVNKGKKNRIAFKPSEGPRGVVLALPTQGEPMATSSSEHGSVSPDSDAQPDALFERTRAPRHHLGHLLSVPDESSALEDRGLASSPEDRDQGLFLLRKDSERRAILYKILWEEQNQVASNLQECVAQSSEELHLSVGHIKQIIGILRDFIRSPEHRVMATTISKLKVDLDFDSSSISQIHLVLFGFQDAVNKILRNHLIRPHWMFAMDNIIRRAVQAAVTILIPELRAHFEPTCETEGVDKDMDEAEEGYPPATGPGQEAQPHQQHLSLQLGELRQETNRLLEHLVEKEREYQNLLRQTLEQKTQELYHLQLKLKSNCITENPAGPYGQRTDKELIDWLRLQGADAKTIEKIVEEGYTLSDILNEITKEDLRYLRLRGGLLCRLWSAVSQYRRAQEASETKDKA
Briefly: Inhibition of MAP3K15 (unknown origin) at 1 uM by Ambit Kinomescan binding assay relative to control; values are per cent of control.

For test [8], the system named is Epidermal growth factor receptor (Homo sapiens), P00533 [UNDEFINED MUTATION]. The test can be described thus: Inhibition of EGFR E746-A750del mutant (unknown origin) at 10 uM by Ambit Kinomescan binding assay relative to control.
Test [9] addresses Mitogen-activated protein kinase 6 (Homo sapiens) (UniProt Q16659). The test can be described thus: Inhibition of ERK3 (unknown origin) at 10 uM by Ambit Kinomescan binding assay.

Activity calls are given as the source filed them. No cut-off for these calls is given here.

Sequence of STE20-like serine/threonine-protein kinase (Homo sapiens) (Q9H2G2 whole entry, looked up): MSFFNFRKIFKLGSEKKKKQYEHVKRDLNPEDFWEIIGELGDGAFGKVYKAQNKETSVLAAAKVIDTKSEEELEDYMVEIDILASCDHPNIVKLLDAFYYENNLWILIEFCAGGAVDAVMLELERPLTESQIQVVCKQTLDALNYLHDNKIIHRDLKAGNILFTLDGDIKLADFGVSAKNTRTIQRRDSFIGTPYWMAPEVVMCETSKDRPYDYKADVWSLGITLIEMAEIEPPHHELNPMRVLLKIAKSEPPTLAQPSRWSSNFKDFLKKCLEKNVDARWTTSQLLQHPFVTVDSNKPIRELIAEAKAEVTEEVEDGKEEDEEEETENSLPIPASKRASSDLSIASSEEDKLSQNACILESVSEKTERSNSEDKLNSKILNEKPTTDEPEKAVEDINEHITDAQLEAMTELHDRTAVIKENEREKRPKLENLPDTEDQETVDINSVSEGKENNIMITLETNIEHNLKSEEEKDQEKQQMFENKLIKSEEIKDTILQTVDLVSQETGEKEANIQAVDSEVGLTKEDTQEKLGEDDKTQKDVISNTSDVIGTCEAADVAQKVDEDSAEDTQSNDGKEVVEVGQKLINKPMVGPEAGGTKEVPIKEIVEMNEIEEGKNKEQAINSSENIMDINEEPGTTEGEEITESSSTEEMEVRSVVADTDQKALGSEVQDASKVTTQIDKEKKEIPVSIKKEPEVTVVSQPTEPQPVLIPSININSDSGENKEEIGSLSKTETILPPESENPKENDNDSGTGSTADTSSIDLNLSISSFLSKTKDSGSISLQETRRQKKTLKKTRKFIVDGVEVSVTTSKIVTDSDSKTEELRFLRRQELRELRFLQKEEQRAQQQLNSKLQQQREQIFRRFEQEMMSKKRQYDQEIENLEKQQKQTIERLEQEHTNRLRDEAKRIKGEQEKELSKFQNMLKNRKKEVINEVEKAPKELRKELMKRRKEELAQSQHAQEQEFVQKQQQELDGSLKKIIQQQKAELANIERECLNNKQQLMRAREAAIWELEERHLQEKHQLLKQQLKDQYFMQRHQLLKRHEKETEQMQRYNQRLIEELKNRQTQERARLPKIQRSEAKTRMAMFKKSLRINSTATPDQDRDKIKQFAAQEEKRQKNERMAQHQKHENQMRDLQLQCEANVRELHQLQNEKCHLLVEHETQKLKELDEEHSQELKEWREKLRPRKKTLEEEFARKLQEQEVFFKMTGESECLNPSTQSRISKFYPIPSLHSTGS
Sequence of Ephrin type-A receptor 2 (P29317 whole entry): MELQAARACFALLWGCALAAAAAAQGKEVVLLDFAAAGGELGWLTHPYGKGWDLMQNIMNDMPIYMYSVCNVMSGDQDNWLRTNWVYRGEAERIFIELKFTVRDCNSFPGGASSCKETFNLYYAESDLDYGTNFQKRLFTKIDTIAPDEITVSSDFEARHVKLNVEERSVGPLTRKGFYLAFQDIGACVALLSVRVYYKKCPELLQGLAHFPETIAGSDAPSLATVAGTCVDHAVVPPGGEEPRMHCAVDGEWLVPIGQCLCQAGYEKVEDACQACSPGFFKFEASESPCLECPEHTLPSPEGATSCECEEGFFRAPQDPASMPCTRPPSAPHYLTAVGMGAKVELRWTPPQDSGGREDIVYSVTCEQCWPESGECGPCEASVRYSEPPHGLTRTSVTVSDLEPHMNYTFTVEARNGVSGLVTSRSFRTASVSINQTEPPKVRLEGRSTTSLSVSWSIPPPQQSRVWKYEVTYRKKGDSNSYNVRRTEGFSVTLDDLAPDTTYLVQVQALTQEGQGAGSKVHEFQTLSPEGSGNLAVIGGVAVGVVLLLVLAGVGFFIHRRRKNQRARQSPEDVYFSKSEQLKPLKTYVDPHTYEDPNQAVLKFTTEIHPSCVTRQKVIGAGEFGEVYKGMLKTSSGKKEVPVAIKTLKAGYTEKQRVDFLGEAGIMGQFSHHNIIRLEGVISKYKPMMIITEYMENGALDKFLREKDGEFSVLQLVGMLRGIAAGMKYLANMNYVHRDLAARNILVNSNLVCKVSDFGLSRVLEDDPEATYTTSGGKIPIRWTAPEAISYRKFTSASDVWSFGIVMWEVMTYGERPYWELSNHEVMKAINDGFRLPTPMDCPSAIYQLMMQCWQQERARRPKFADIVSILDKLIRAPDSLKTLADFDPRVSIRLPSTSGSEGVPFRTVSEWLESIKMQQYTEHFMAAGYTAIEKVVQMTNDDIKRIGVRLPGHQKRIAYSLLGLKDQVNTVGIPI

In general, inhibition refers to the drop in the measured response relative to a control, in per cent. Regarding `CNc1cc(Oc2cc(C(=O)Nc3cc(N4CCN(C)CC4)cc(C(F)(F)F)c3)ccc2C)ncn1`, the results for the inhibition in [1] and in test [3] were 8.2% and 9.7%, respectively. In addition, the inhibition at 1 µM in test [2] is -44.2%.
Take `CCN1CCN(Cc2ccc(NC(=O)c3ccc(C)c(/C=C/c4cnc5[nH]ccc5c4OC)c3)cc2C(F)(F)F)CC1`: the inhibition in test [4] came out at 1.6%; in test [5] it was 72%; in test [6], 6.8%; at Ephrin type-A receptor 2, 83.7%. Further, the residual activity in [7] turned out to be 100%.
For `CCN1CCN(Cc2ccc(NC(=O)c3ccc(C)c(Oc4ccnc5[nH]ccc45)c3)cc2C(F)(F)F)CC1`, the inhibition in test [8] was found to be 8.4%. The inhibition entry in [9] is “inactive”.
